Results reported in patent US10640468B2, “1-(4-(2-((1-(3,4-difluorophenyl)-1H-pyrazol-3-Yl)methoxy)ethyl)piperazin-1- Yl)ethanone salts” (ESTEVE PHARMACEUTICALS S.A., priority 2015, dated 2020).
Values joined by “and” are separate entries in the source; they are usually repeats but may differ in a detail not shown here. Identical values can stand only once. Counter-ions that a name gives are not always drawn. Like-named read-outs stand apart in the source and are kept apart here.

Key:
[1] = Pharmacokinetics after single oral administration to male Wistar rat; format: in vivo
Description: The pharmacokinetics of Example 1 and 2 were tested using the following protocol:
Male Wistar rats weighing 250 to 300 g (±20) supplied by Harlan were used. Water and food was available ad libitum throughout the study.
Administration and Sample Collection
Two rats (R1 and R2) were used in the pharmacokinetic oral studies.
A single dose of tested compound was administered by oral gavage [10 mg/kg as free base (Example 0)] in 0.5% hydroxypropyl methylcellulose (1 mg/ml). From each rat, serial blood samples were collected at 15 and 30 min, 1, 2, 3, 5, 7 and 24 h.
Blood was collected from the saphenous veins into heparinized tubes. Plasma was obtained by blood centrifugation at 4° C. and 2280×g for 10 min and kept at −80° C. until analysis.
Tested compound concentration in plasma samples was determined by least-squares linear regression using a ten-point calibration curve. The calibration curve was prepared in blank plasma from a working solution of 1 mg/ml in DMSO.
Samples were thawed at room temperature on the day of analysis. After plasma protein precipitation of samples and calibration standards with acetonitrile (1:4.3; v/v), the mixture was vortexed and centrifuged (4° C. and 16090×g for 10 min).
Tested compound plasma concentrations were determined by high performance liquid chromatography-triple quadrupole mass spectrometry (HPLC-MS/MS) through the following method:
Column: Atlantis® T3 column (2.1×100 mm, 3 μm) (Waters).
Mobile phase: A: 0.0155% Formic water • B: 0.0155% Formic Acetonitrile
Autosampler wash: Solvent 1:Acetonitrile • Solvent 2: 5% Acetonitrile+95% Water
Standard pharmacokinetic parameters, such as area under the curve (AUC), peak plasma concentration (Cmax), time to peak concentration (tmax), oral bioavailability (F), total plasma clearance (Cl), volume of distribution at steady-state (Vss), mean residence time (MRT) and terminal half-life (t1/2), were determined by non-compartmental analysis of the plasma concentration-time curves (Phoenix v. 6.2.1.51, Pharsight, C A).

[2] = Thermodynamic solubility at pH 7.4; format: physicochemical; conditions: for solubility thermodynamic at 24 h: phosphate buffer, 25 °C, pH 7.4, aqueous buffer, thermodynamic from solid
Description: General protocol for thermodynamic solubility at pH 7.4 and pH 2 are described. • A) Thermodynamic Solubility at pH 7.4
Phosphate buffer at pH 7.4 (25 mM) was prepared as follows:
A solution 25 mM of Na2HPO4.12H2O (for 1 L of water, weight 8.96 g) was prepared
A solution 25 mM de KH2PO4 (for 1 L of water weight 3.4 g) was prepared.
Disodium phosphate solution (812 mL) and potassium phosphate (182 mL) solution were mixed and pH checked to be 7.4.
Equipment • Precision analytical balance Mettler Toledo AT20. • Analytical balance Mettler Toledo PJ300. • Liquid chromatograph Waters Alliance 2695. • Stirrer Thermomixer Control of Eppendorf a 25° C. y 1250 rpm • pHmeter with combined semi-micro electrode.
Around 4 mg of compound in an HPLC vial (by duplicate) was dissolved in 1 mL of buffer solution. After stirring in Thermomixer Comfort system for 24 hours at 25° C., in order to achieve thermodynamic equilibrium, solution was centrifuged at 3000 rpm for 15 minutes.
The resulting upper layer was collected with a glass pipette and transferred to the HPLC vials in order to inject them (10 μL) directly to the HPLC instrument.
Standards were made in methanol to ensure overall compound solubility. Preparation of standard calibrators is illustrated below:
Sol.A: 4 mg in 1 mL methanol (4000 μg/mL)
Sol.B: 0.5 mL Sol.A to 5 mL with methanol (400 μg/mL)
Sol.C: 1 mL Sol.B to 10 mL with methanol (40 μg/mL)
Sol.D: 5 mL […] to 50 mL with methanol (4 μg/mL)
Sol.E: 4 mL Sol.D to 10 mL with methanol (1.6 μg/mL)
Calibration curve was created through 10 μL injection of standards, beginning with the more diluted standard. Blanks were also injected, for checking the absence of contamination.
10 μl of test substance were injected, by duplicate, and the average peak area interpolated in the calibration curve (see Tables Examples below).
Chromatographic Conditions • Column: XBridge C18 (or similar) 2.5 μm 4.6×50 mm • Temperature: 35° C. • Mobile phase: ACN/ammonium bicarbonate 10 mM. • Gradient: 0-3.5 min: from 15% CAN to 95% CAN • 3.5-5 min: 95% ACN • 5-6 min: 95 a 15% ACN • 6-8 min: 15% ACN • Flow: 1.5 mL/min • Detection: around the maximum UV wavelength. • B) Thermodynamic Solubility at pH 2

[3] = mean of 2 rats, 10 mg/kg oral, hydrochloride, 10 mg/kg

SMILES: CC(=O)N1CCN(CCOCc2ccn(-c3ccc(F)c(F)c3)n2)CC1 [Example 1, hydrochloride]
- F ([1]; animal 1, 10 mg/kg oral, mean AUC after i.v. administration used for calculation, hydrochloride): 66%
- F ([1]; animal 2, 10 mg/kg oral, mean AUC after i.v. administration used for calculation, hydrochloride): 53%
- Vd ([1]; male, Wistar, plasma, rat, total body water volume 0.6 l/kg, read-out: volume of distribution): 1.2 L/kg
- bioavailability ([1]; male, Wistar, rat, plasma, oral, 10 mg/kg, mean of 2 rats, 10 mg/kg oral, mean AUC after i.v. administration used for calculation, read-out: F (oral bioavailability)): 60%
- AUC ([1]; male, Wistar, rat, plasma, po, 10 mg/kg, animal 1, 10 mg/kg oral, read-out: AUC): 2950 ng·h/mL
- Cmax ([1]; male, Wistar, rat, plasma, po, 10 mg/kg, animal 1, 10 mg/kg oral, read-out: Cmax): 1310 ng/mL
- half-life ([1]; male, Wistar, rat, plasma, po, 10 mg/kg, animal 1, 10 mg/kg oral, read-out: t1/2 (converted)): 54 min
- tmax ([1]; male, Wistar, rat, plasma, po, 10 mg/kg, animal 1, 10 mg/kg oral, read-out: tmax): 15 min
- AUC ([1]; male, Wistar, rat, plasma, po, 10 mg/kg, animal 2, 10 mg/kg oral, read-out: AUC): 2340 ng·h/mL
- Cmax ([1]; male, Wistar, rat, plasma, po, 10 mg/kg, animal 2, 10 mg/kg oral, read-out: Cmax): 1050 ng/mL
- half-life ([1]; male, Wistar, rat, plasma, po, 10 mg/kg, animal 2, 10 mg/kg oral, read-out: t1/2 (converted)): 54 min
- tmax ([1]; male, Wistar, rat, plasma, po, 10 mg/kg, animal 2, 10 mg/kg oral, read-out: tmax): 60 min
- AUC ([1]; male, Wistar, rat, plasma, po, 10 mg/kg, mean of 2 rats, 10 mg/kg oral, read-out: AUC): ~2600 ng·h/mL
- Cmax ([1]; male, Wistar, rat, plasma, po, 10 mg/kg, mean of 2 rats, 10 mg/kg oral, read-out: Cmax (peak plasma concentration)): ~1000 ng/mL
- half-life ([1]; male, Wistar, rat, plasma, po, 10 mg/kg, mean of 2 rats, 10 mg/kg oral, read-out: t1/2 (terminal half-life)): < 60 min
- tmax ([1]; male, Wistar, rat, plasma, po, 10 mg/kg, mean of 2 rats, 10 mg/kg oral, read-out: tmax): 36 min
- concentration at 0.5 h ([1]; male, Wistar, rat, plasma, po, 10 mg/kg, rat R1, 0.5 h, 10 mg/kg oral): 1300 ng/mL
- concentration at 1 h ([1]; male, Wistar, rat, plasma, po, 10 mg/kg, rat R1, 1 h, 10 mg/kg oral): 1070 ng/mL
- concentration at 5 h ([1]; male, Wistar, rat, plasma, po, 10 mg/kg, rat R1, 5 h, 10 mg/kg oral): 49.6 ng/mL
- concentration at 0.5 h ([1]; male, Wistar, rat, plasma, po, 10 mg/kg, rat R2, 0.5 h, 10 mg/kg oral): 742 ng/mL
- concentration at 1 h ([1]; male, Wistar, rat, plasma, po, 10 mg/kg, rat R2, 1 h, 10 mg/kg oral): 1050 ng/mL
- concentration at 5 h ([1]; male, Wistar, rat, plasma, po, 10 mg/kg, rat R2, 5 h, 10 mg/kg oral): 46.9 ng/mL
- concentration at 7 h ([1]; male, Wistar, rat, plasma, po, 10 mg/kg, rat R2, 7 h, 10 mg/kg oral): 11.5 ng/mL
- AUC [1, 3]: 2645 ng·h/mL
- t1/2 (terminal half-life) [1, 3]: 54 min
- tmax [1, 3]: 37.8 min
- plasma clearance ([1]; rat): 70 % liver blood flow
- Plasma concentration ([1]; rat R1, 2 h, 10 mg/kg oral, hydrochloride, 10 mg/kg): 722.8 ng/mL
- Plasma concentration ([1]; rat R1, 3 h, 10 mg/kg oral, hydrochloride, 10 mg/kg): 323.1 ng/mL
- Plasma concentration ([1]; rat R1, 7 h, 10 mg/kg oral, hydrochloride, 10 mg/kg): 12.8 ng/mL
- Plasma concentration ([1]; rat R1, 24 h, 10 mg/kg oral, LLOQ 2 ng/ml): <lloq
- Plasma concentration ([1]; rat R2, 2 h, 10 mg/kg oral, hydrochloride, 10 mg/kg): 673.9 ng/mL
- Plasma concentration ([1]; rat R2, 3 h, 10 mg/kg oral, hydrochloride, 10 mg/kg): 233.1 ng/mL
- Plasma concentration ([1]; rat R2, 24 h, 10 mg/kg oral, LLOQ 2 ng/ml): <lloq
- Conc. ([2]; pH 7.4, single HPLC injections of duplicate vials, hydrochloride): 3928 µg/mL and 3817.1 µg/mL and 4301.5 µg/mL and 4345.3 µg/mL
- solubility thermodynamic at 24 h ([2]; pH 7.4, mean of 4 injections, read-out: Conc. Mean): 4100 µg/mL
- solubility thermodynamic at 24 h ([2]; pH=7.4, 24 hours at 25° C., completely dissolved, read-out: thermodynamic solubility): > 4000 µg/mL
